According to PMC9466600 (ACS Medicinal Chemistry Letters, 2022):
Each block holds one compound with its values, some of them ahead of it.

Experiments:
[1] = prevented HTRF measurement
[2] = molecular target: reader domain of YTHDF1 (Homo sapiens, UniProt Q9BYJ9); details: from residual signal at 1 mM, Table S1
[3] = molecular target: reader domain of YTHDF3 (Homo sapiens, UniProt Q7Z739); details: from residual signal at 1 mM, Table S1
[4] = molecular target: m^6A reader domain of YTHDF2 (Homo sapiens, UniProt Q9Y5A9); details: for Potency/affinity for YTHDF2 (in words): HTRF, comparison within Table 1
Chain of m^6A reader domain of YTHDF2 (Q9Y5A9 383-579): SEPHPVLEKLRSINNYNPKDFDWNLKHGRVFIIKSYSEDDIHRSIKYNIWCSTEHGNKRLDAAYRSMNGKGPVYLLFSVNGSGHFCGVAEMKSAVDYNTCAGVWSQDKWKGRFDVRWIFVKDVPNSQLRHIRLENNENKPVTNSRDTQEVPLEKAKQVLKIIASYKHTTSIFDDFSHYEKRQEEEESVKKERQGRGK

Chain of reader domain of YTHDF1 (Q9BYJ9 361-559): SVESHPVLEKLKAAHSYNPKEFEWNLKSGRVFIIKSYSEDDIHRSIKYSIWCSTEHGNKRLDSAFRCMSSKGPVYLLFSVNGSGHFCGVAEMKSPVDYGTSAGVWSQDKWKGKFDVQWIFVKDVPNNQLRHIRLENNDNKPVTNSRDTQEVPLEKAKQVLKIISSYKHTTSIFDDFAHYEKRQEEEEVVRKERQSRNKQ
Chain of reader domain of YTHDF3 (Q7Z739 391-585): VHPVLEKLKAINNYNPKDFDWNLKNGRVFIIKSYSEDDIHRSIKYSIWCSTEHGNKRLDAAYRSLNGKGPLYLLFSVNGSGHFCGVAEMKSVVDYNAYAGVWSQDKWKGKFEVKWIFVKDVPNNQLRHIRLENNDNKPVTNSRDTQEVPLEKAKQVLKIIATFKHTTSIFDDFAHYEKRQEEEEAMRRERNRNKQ

SMILES: CNc1nc(NC)c2ncn(C)c2n1 [Compound 3]
Solubility (in words) [1]: poor solubility

SMILES: Cc1[nH]nc2c(NC3CC3)ncnc12 [Compound 6]
Potency/affinity for YTHDF2 (in words) [4]: lower than the one observed for its parent compound 5

SMILES: CNc1ncnc2c(Br)[nH]nc12 [Compound 8]
Potency/affinity for YTHDF2 (in words) [4]: nor any improvement in potency with respect to the methyl of 5

SMILES: CNc1ncnc2c1ncn2[C@@H]1O[C@H](CO)[C@@H](O)[C@H]1O [m^6A, N6-methyladenosine, reference compound]
Potency/affinity for YTHDF2 (in words) [4]: not able to reduce the emitted signal even at high concentrations

Next, values leading:

Affinity for YTHDF1 (in words) [2]: weak affinity
Affinity for YTHDF3 (in words) [3]: weak affinity
SMILES: CNc1ncnc2c(C)[nH]nc12 [Compound 5]

Selectivity for YTHDF2 against YTHDF1 and YTHDF3 (in words) ([4]; from residual signal at 1 mM, Table S1): modest selectivity
SMILES: CNc1ncnc2c(-c3ccccc3)[nH]nc12 [Compound 7]

Potency/affinity for YTHDF2 (in words) [4]: does not provide higher affinity
SMILES: COc1cc(=O)[nH]c(=O)[nH]1 [Compound 10, 6-methoxyuracil]

Potency/affinity for YTHDF2 (in words) [4]: substantially higher
Ligand efficiency ([4]; calculated from YTHDF2 IC50): 0.47 kcal mol^–1 per non-hydrogen atom
SMILES: O=c1cc(C2CC2)[nH]c(=O)[nH]1 [Compound 11, 6-cyclopropyluracil]
